In test [1] the target is Protein-tyrosine kinase 2-beta (Homo sapiens) (UniProt Q14289). Nature of the test: Inhibition of full length human N-terminal GST-tagged PYK2 (1 to 967 residues) expressed in baculovirus expression system using fluorescence labelled Blk/Lyntide as substrate at 50 times IC50 by electrophoretic mobility shift assay relative to control. (A gel shift assay detects complexes by their altered migration in electrophoresis.)

For test [2], the target named is CDK2/Cyclin A2 (Homo sapiens) (UniProt P24941+P20248). Nature of the test: Inhibition of full length human N-terminal GST-tagged CDK2 (1 to 298 residues)/Cyclin A2 (1 to 432 residues) expressed in baculovirus expression system using fluorescence labelled modified histone H1 as substrate at 50 times IC50 by electrophoretic mobility shift assay relative to control.

Test [3] deals with T1, Serine/threonine-protein kinase D2 (Homo sapiens) (UniProt Q9BZL6).
T1 sequence (whole entry): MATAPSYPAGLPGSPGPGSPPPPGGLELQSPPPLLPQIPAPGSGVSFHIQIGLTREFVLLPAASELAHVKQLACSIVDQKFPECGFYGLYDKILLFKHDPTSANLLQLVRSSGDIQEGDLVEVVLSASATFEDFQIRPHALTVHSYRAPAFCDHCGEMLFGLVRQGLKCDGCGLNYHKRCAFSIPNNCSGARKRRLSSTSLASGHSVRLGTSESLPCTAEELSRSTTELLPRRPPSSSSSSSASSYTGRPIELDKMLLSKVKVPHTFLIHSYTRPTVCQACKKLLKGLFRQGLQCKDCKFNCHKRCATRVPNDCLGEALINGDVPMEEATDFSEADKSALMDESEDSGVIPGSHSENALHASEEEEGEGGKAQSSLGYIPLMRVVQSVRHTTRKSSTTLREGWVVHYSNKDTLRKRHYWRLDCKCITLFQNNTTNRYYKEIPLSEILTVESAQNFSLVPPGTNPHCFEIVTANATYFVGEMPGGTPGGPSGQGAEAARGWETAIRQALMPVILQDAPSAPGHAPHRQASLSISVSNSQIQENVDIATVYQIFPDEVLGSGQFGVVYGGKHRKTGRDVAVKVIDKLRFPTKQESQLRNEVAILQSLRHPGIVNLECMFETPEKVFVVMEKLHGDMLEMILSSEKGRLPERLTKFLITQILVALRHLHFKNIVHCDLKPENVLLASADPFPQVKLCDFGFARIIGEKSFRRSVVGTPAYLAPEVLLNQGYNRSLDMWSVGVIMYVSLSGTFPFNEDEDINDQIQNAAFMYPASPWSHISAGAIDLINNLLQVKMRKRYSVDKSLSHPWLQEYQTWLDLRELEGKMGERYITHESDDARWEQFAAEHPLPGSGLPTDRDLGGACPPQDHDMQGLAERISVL
Nature of the test: Inhibition of full length human N-terminal GST-tagged PKD2 (1 to 878 residues) expressed in baculovirus expression system using fluorescence labelled GS peptide substrate at 50 times IC50 by electrophoretic mobility shift assay relative to control.

Test [4] has as its target T2, Calcium/calmodulin-dependent protein kinase type IV (Homo sapiens) (UniProt Q16566).
T2 sequence (whole entry): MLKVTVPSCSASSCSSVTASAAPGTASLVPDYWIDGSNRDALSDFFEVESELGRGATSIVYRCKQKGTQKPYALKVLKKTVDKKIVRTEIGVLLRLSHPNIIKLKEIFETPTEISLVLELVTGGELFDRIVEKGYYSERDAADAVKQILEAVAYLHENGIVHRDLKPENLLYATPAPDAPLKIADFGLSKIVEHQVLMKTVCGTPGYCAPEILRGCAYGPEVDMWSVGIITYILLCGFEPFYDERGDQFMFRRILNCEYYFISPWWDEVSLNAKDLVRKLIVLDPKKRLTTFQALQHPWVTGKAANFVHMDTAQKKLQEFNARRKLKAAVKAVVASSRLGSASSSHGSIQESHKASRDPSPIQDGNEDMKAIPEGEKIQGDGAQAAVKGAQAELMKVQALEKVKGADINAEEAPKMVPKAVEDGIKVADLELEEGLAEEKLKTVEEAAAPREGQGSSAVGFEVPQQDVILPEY
Put plainly: Inhibition of full length human N-terminal GST-tagged CAMK4 (1 to 473 residues) expressed in baculovirus expression system using fluorescence labelled GS peptide as substrate at 50 times IC50 by electrophoretic mobility shift assay relative to control.

Test [5] addresses T3, Aurora kinase A (Homo sapiens) (UniProt O14965).
T3 sequence (whole entry): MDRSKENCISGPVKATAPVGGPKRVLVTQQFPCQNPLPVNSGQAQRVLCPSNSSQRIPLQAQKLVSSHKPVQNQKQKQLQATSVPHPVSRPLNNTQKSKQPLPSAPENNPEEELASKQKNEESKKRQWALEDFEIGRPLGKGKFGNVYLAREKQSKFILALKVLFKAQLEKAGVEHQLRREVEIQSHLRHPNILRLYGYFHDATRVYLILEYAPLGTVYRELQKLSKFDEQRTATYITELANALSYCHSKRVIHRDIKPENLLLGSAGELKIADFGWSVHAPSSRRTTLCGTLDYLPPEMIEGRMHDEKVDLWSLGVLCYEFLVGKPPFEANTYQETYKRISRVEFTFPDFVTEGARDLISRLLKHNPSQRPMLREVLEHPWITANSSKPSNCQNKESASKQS
Nature of the test: Inhibition of full length human N-terminal GST-tagged Aurora A (1 to 403 residues) expressed in baculovirus expression system using fluorescence labelled kemptide as substrate at 50 times IC50 by electrophoretic mobility shift assay relative to control.

Test [6] has as its target RAC-alpha serine/threonine-protein kinase (Homo sapiens) (UniProt P31749). Nature of the test: Inhibition of human N-terminal GST-tagged AKT1 catalytic domain (104 to 480 residues) expressed in baculovirus expression system using fluorescence labelled crosstide as substrate at 50 times IC50 by electrophoretic mobility shift assay relative to control.

Experimental findings from ChEMBL document CHEMBL3792292, “Development of a potent and selective FLT3 kinase inhibitor by systematic expansion of a non-selective fragment-screening hit” (Bioorg Med Chem Lett, 2016) are described below.

RAC-alpha serine/threonine-protein kinase (Homo sapiens), sequence (P31749 whole entry, the tested form may be a part): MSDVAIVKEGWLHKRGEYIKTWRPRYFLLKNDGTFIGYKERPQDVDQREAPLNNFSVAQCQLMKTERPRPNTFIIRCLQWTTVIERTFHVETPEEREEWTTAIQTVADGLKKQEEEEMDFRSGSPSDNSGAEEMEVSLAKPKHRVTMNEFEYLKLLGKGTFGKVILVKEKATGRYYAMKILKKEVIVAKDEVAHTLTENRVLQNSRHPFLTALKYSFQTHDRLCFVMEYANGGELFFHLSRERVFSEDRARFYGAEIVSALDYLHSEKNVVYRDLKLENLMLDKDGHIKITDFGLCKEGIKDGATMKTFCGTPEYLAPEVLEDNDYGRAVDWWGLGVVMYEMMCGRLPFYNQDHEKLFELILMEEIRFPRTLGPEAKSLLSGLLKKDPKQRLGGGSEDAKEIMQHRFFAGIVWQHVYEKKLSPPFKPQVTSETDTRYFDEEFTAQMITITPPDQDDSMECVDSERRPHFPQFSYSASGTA
Protein-tyrosine kinase 2-beta (Homo sapiens), sequence (Q14289 whole entry, looked up, the tested form may be a part): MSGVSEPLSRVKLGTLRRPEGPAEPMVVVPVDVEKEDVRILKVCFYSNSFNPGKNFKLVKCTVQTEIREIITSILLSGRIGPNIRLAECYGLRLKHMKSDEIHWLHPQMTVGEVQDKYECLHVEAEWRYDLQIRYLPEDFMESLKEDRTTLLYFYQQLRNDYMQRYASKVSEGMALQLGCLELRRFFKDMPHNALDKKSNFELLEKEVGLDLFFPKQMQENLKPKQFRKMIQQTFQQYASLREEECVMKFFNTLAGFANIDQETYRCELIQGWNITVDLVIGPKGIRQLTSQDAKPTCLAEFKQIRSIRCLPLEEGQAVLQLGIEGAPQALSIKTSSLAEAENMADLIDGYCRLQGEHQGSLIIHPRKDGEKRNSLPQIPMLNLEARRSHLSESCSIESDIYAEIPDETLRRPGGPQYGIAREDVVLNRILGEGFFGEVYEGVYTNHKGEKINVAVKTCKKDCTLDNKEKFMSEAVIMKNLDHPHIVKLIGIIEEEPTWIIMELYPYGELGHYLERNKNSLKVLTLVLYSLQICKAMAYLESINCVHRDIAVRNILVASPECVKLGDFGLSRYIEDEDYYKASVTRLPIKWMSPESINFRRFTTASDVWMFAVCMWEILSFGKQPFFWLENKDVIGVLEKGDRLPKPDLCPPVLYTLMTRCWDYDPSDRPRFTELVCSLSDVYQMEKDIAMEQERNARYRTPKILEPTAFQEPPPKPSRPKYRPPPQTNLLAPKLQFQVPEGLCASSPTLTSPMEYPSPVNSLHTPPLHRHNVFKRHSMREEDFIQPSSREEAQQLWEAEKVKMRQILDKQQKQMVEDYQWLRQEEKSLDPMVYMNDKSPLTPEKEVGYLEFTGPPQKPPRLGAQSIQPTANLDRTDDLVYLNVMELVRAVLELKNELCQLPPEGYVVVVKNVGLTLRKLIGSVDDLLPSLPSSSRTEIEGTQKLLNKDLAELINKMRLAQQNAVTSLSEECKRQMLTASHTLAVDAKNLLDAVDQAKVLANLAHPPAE

For orientation: inhibition means the change of the read-out against control, counted positive when it falls. For the molecule `O=C(Nc1ccc(CN2CCN(c3ccccc3)CC2)cc1)c1n[nH]c2ccccc12`, the inhibition in test [1] was 14.2%; in test [2], 4.5%; in test [3] it was 4.5%; in test [4] it was 0.8%; in test [5] it was 6.1%; in test [6], -3.3%.

Consider `O=C(Nc1ccc(C(=O)N2CCN(c3ccccc3)CC2)cc1)c1n[nH]c2ccccc12`, for which the inhibition in test [1] was 34.9%; in test [2], 14.9%; in test [3] it was 5.7%; in test [4], 2.7%; in test [5], 31.3%; in test [6], -1.1%.

As to `O=C(Nc1ccccc1)c1n[nH]c2ccccc12`, the inhibition is 49.5% in test [1]; 86.3% in test [2]; 1.3% in test [3]; 21.2% in test [4]; 45.2% in test [5]; -2.4% in test [6].
